From ChEMBL document CHEMBL3112428, “Biological evaluation of diazene derivatives as anti-tubercular compounds” (Eur J Med Chem, 2014)
Converted amounts (≈) assume the structure as drawn.

system: Mycobacterium tuberculosis variant bovis; experiment: Antituberculosis activity against Mycobacterium bovis AN5 expressing lux gene assessed as inhibition of bacterial replication after 6 days by luminometry analysis; format: functional, organism-based; settings: AN5, 144 h

Question: For O=C(/N=N/c1ccc([N+](=O)[O-])cc1)Nc1ccccc1, which IC50 is on record?
Answer: 2.21 µg/mL (≈ 8.18 µM)

Question: How did the IC50 turn out when O=C(/N=N/c1ccc(C(F)(F)F)cc1)Nc1ccccc1 was run?
Answer: 1.05 µg/mL (≈ 3.58 µM)

Question: For CCOC(=O)/N=N/C(=O)Nc1ccc(C)cc1, which IC50 is on record?
Answer: 2.78 µg/mL (≈ 11.8 µM)
